We go through eight compounds from PubChem BioAssay (NCI).

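48-hour exposure; five concentrations; linearly interpolated endpoints. Abbreviation: GI50, concentration required for 50% inhibition of growth. At the TGI there is no net growth.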 Some results are limits rather than exact numbers.

Holding throughout (assay): NCI-60 cell line screen, 48 h
Assay [1] concerns CCRF-CEM leukemia.
The subject of assay [2] is SNB-75 CNS.
In assay [3] the test system is A498 renal.
Assay [4] has as its system MCF7 breast.
In assay [5] the test system is NCI-H522 lung.
Assay [6] deals with HL-60(TB) leukemia.
Assay [7] deals with RPMI-8226 leukemia.
The test system of assay [8] is ACHN renal.
The subject of assay [9] is OVCAR-5 ovarian.
Assay [10] deals with SK-MEL-5 melanoma.

On to `CCCCCCCCNC(C)C(O)c1ccc(SC(C)C)cc1` (stereo not given), for which the GI50 is 2.44 µM in [1]; 1.72 µM in assay [2]; 1.5 µM in assay [3]; 1.8 µM in [4]; 1.43 µM in assay [5]; 2.2 µM in [6]. In addition, the GI50 in [7] was 2.06 µM; in assay [8], 1.87 µM; in assay [9] it was 1.76 µM; in [10], 1.62 µM. The TGI in assay [1] was determined as 7.19 µM; in assay [2], 3.26 µM; in [3] it was 2.86 µM; in assay [4], 3.32 µM; in assay [5], 2.95 µM; in assay [6] it was 4.07 µM. Besides, the TGI in assay [7] worked out at 4.91 µM; in assay [8], 3.3 µM; in assay [9] it was 3.23 µM; in assay [10] it was 2.99 µM.
As for `O=C1NC(=O)[C@@H](c2c[nH]c3ccccc23)[C@@H]1c1c[nH]c2ccccc12`, the GI50 in assay [1], in assay [2], in assay [3], in assay [4], in [5] and in assay [6] was more than 25 µM each time. Also, the GI50 in assay [7], in assay [8], in [9] and in [10] was more than 25 µM throughout. Moreover, the TGI in assay [1], in assay [2], in assay [3], in [4], in assay [5] and in assay [6] was more than 25 µM in each case. In addition, the TGI in assay [7], in assay [8], in [9] and in assay [10] was more than 25 µM throughout.
For the compound `Oc1ccc(Oc2cnc3cc(Cl)ccc3n2)cc1`, the GI50 was 1.62 µM in assay [1]; 26 µM in assay [2]; 25.4 µM in assay [3]; 38.1 µM in assay [4]; 19.1 µM in assay [5]; 2.25 µM in [6]. Also, the GI50 in [7] is 16.7 µM; in assay [8], 36.3 µM; in assay [9] it was more than 100 µM; in [10], 28.6 µM. In addition, the TGI was 79.9 µM in [1]; more than 100 µM in [2]; more than 100 µM in [3]; more than 100 µM in [4]; more than 100 µM in assay [5]; more than 100 µM in assay [6]. The TGI in assay [7], in [8], in assay [9] and in assay [10] was more than 100 µM each time.
As for `O=C(Cn1c(C(=O)c2ccc(Cl)cc2)nc(-c2ccccc2)c1-c1ccccc1)c1ccc(Cl)cc1`, the GI50 in assay [1], in assay [2], in assay [3], in [4], in [5] and in assay [6] was more than 100 µM each time. Further, the GI50 in assay [7], in assay [8], in [9] and in [10] was more than 100 µM each time. The TGI in assay [1], in [2], in [3], in [4], in [5] and in assay [6] was more than 100 µM throughout. The TGI in assay [7], in assay [8], in assay [9] and in assay [10] was more than 100 µM each time.
With `CN(C)CC1CCCCCC(Br)C1=O` (stereo not given), the TGI in [1] is 3.15 µM; in assay [2], more than 100 µM; in [3], more than 100 µM; in assay [4] it was 12.7 µM; in assay [5], 8.72 µM; in assay [6] it was 30.1 µM. Besides, the TGI in assay [7] is 3.96 µM; in [8], 19.6 µM; in assay [9], more than 52.2 µM; in [10], 30.3 µM.
Consider `OCCn1cc(-c2cnc3nnn(Cc4ccc5ncccc5c4)c3n2)cn1`, for which the GI50 was more than 100 µM in assay [1]; more than 100 µM in assay [2]; 34.3 µM in assay [3]; more than 100 µM in assay [4]; more than 100 µM in assay [5]; more than 100 µM in [6]. Also, the GI50 in assay [7], in assay [8], in assay [9] and in [10] was more than 100 µM throughout. Besides, the TGI in assay [1], in assay [2], in assay [3], in [4], in [5] and in assay [6] was more than 100 µM in each case. Moreover, the TGI in assay [7], in [8], in assay [9] and in [10] was more than 100 µM in each case.
As for `COc1ccc(/C=C\c2cc(OC)c(OC)c(OC)c2)cc1OCC(=O)Nc1nc2ccccc2s1`, the GI50 was 0.134 µM in [1]; 0.109 µM in [2]; 0.346 µM in assay [3]; 0.113 µM in [4]; 0.049 µM in assay [5]; 0.0275 µM in [6]. Also, the GI50 is 0.683 µM in assay [7], 0.107 µM in assay [8], 31.9 µM in assay [9] and 0.0405 µM in [10]. Further, the TGI was more than 100 µM in [1]; more than 100 µM in [2]; more than 83.4 µM in assay [3]; more than 100 µM in assay [4]; 0.338 µM in [5]; more than 100 µM in [6]. Moreover, the TGI is more than 100 µM in [7], more than 100 µM in [8], more than 100 µM in assay [9] and 0.263 µM in assay [10].
Turning to `O=c1c2c(=NCCN3CCCC3)cc3c(=O)n(CCCN4CCOCC4)c(=O)c4ccc(c(O)n1CCCN1CCOCC1)c2c4-3`, the GI50 in [1] is 0.0532 µM; in assay [2] it was 0.234 µM; in assay [3], 0.173 µM; in [4], 0.0752 µM; in assay [5], 0.102 µM; in assay [6] it was 0.338 µM. In addition, the GI50 is 0.146 µM in assay [7], 0.0909 µM in [8], 0.113 µM in [9] and 0.442 µM in assay [10]. Moreover, the TGI in assay [1] is 1.59 µM; in [2], 1.46 µM; in assay [3], 0.981 µM; in assay [4] it was 1.13 µM; in assay [5] it was 0.438 µM; in assay [6] it was 1.43 µM. Moreover, the TGI was determined as 1.09 µM in [7], 1.51 µM in [8], 1.21 µM in assay [9] and 0.918 µM in assay [10].
